In PubChem BioAssay (NCI):
“And” between values parts separate entries of the source, which are not always exact repeats. Equal entries are not always repeated.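 Interpolation was linear, between the two tested concentrations surrounding the appropriate level; five concentrations were tested over 48 hours in 96-well plates. At the GI50, growth is halved. TGI is the concentration that stops growth completely.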

How the values were obtained:
Experiment in all cases: growth of human tumour cells (NCI), 48 h
U251 CNS = tested on: U251 CNS
SF-539 CNS = tested on: SF-539 CNS
NCI-H522 lung = tested on: NCI-H522 lung
SR leukemia = tested on: SR leukemia
SF-295 CNS = tested on: SF-295 CNS
OVCAR-8 ovarian = tested on: OVCAR-8 ovarian
SNB-19 CNS = tested on: SNB-19 CNS
M14 melanoma = tested on: M14 melanoma
PC-3 prostate = tested on: PC-3 prostate
CCRF-CEM leukemia = tested on: CCRF-CEM leukemia

Row | Structure (SMILES) | TGI (U251 CNS) | TGI (SF-539 CNS) | TGI (NCI-H522 lung) | TGI (SR leukemia) [µM] | TGI (SF-295 CNS) | TGI (OVCAR-8 ovarian) | TGI (SNB-19 CNS) | TGI (M14 melanoma) | TGI (PC-3 prostate) | TGI (CCRF-CEM leukemia) [µM] | GI50 (U251 CNS) | GI50 (SF-539 CNS) | GI50 (NCI-H522 lung) | GI50 (SF-295 CNS) [µM] | GI50 (CCRF-CEM leukemia) [µM] | GI50 (OVCAR-8 ovarian) | GI50 (SNB-19 CNS) | GI50 (M14 melanoma) | GI50 (PC-3 prostate) | GI50 (SR leukemia) [µM]
1 | O=C(c1ccccc1)c1ccc2c(c1)nc1n2C(c2c(Cl)cccc2Cl)SC1 (stereo not drawn) | > 100 µM | > 100 µM | > 100 µM | > 100 | > 100 µM | > 100 µM | > 100 µM | > 100 µM | > 100 µM |  |  |  |  |  |  |  |  |  |  | 
2 | Cc1nc2c(=S)[nH]ncc2[nH]1 | > 100 µM | > 100 µM | > 100 µM |  | > 100 µM | > 100 µM | > 100 µM | > 100 µM | > 100 µM | > 100 |  |  |  |  |  |  |  |  |  | 
3 | Cc1ccc(C)n1-c1ccccc1C1SCCCS1 | > 100 µM | > 100 µM | > 100 µM |  | > 100 µM | > 100 µM | > 100 µM | > 100 µM | > 100 µM | > 100 |  |  |  |  |  |  |  |  |  | 
4 | COC(=O)[C@H](Cc1ccccc1)NC(=O)c1ccc(CNC(=O)/C=C/c2ccc(-c3ccccc3)cc2)cc1 | 37.3 µM |  |  |  | 94.5 µM | > 100 µM | 39.1 µM | > 100 µM | > 100 µM | > 100 |  |  |  |  |  |  |  |  |  | 
5 | COC(=O)N1CC2(CO)C3CC=C(C(=O)Nc4ccccc4Br)C2C1C3Br (stereo not drawn) | > 50 µM | > 50 µM |  | > 50 | > 50 µM | > 50 µM | > 50 µM | > 50 µM | > 50 µM | > 50 |  |  |  |  |  |  |  |  |  | 
6 | O=C1c2ccccc2C(=O)N1n1c(Cc2ccccc2)n[nH]c1=O | > 100 µM | > 100 µM |  | > 100 | > 100 µM | > 100 µM | > 100 µM | > 100 µM | > 100 µM | > 100 |  |  |  |  |  |  |  |  |  | 
7 | O=C(O)c1ccccc1.[Ag] | 35.4 µM | 45.4 µM |  | > 100 | > 100 µM | > 72.7 µM | > 100 µM | 36 µM | 29.8 µM |  |  |  |  |  |  |  |  |  |  | 
8 | C1CC2=C(C1)[Se]C(=C1Sc3nsnc3S1)[Se]2 | > 100 µM | > 100 µM | > 100 µM |  | > 100 µM | > 100 µM | > 100 µM | > 100 µM | > 100 µM | > 100 |  |  |  |  |  |  |  |  |  | 
9 | C=CCNC(=S)Nc1sc2c(c1C(=O)OCC)CC(C)CC2 (stereo not drawn) | > 100 µM |  | 46.4 µM | 53.6 | 59.5 µM | > 100 µM | 62.5 µM | 49.9 µM | 50 µM |  |  |  |  |  |  |  |  |  |  | 
10 | c1ccc(CNC2CC(NCc3ccccn3)CC(NCc3ccccn3)C2)nc1 (stereo not drawn) | 3.88 µM and 9.35 µM and 3.36 µM | 10.1 µM and 10.7 µM and 15.7 µM | 6.36 µM and 12.2 µM and 4.68 µM |  | 18.9 µM and 20.9 µM and 36.5 µM | 8.59 µM and 25 µM and 9.53 µM | 11.7 µM and 5.64 µM and 3.83 µM | 10.3 µM and 8.32 µM and 5.31 µM | 5.68 µM and 8.75 µM and 3.98 µM |  | 1.95 µM and 4.9 µM and 1.88 µM | 1.98 µM and 4.74 µM and 3.22 µM | 2.16 µM | 5.03 | 4.64 | 2.88 µM and 7.94 µM and 3.62 µM | 3.42 µM and 1.64 µM and 1.96 µM | 3.15 µM and 1.39 µM and 2.35 µM | 2.24 µM and 4.59 µM and 2.02 µM | 
11 | Cc1c2cc[nH]c(C(F)(F)F)c2cc2c1nc1ccccc12 | > 125 µM | > 125 µM | > 125 µM |  | > 125 µM | > 125 µM | > 125 µM |  |  | > 125 |  |  |  |  |  |  |  |  |  | 
12 | COc1cc2c(cc1OCCCN1CCN(CCCOc3cc4c(cc3OC)C(=O)N3CCC[C@H]3C=N4)CC1)C=CC(C)(C)O2 |  | 2.51 µM | 4.27 µM |  |  | 3.85 µM |  | 2.62 µM | 2.09 µM |  |  | 1.26 µM | 1.48 µM |  | 0.288 | 1.38 µM | 2.22 µM | 1.34 µM | 0.804 µM | 
13 | FC(F)(F)c1ccc(-c2nc(-c3nc4cc(Cl)c(Cl)cc4[nH]3)c3ccccn23)cc1 | > 100 µM |  | > 100 µM | > 100 | > 100 µM | > 100 µM | > 100 µM |  |  | > 100 | 3.13 µM |  | 10.6 µM | 3.9 | > 100 | 6.61 µM | 6.88 µM |  |  | > 100
14 | CC1(C)O[C@H]2Cn3c(c(C#N)c4ccccc43)[C@H]2O1 | > 100 µM | > 100 µM | > 100 µM | > 100 | > 100 µM |  | > 100 µM | > 100 µM |  |  |  |  |  |  |  |  |  |  |  | 
15 | CCC1(O)CC(OC2CC(N(C)C)C(OC3CC4OC5CC(=O)C(C)OC5OC4C(C)O3)C(C)O2)c2c(cc3c(c2O)C(=O)c2c(O)ccc(O)c2C3=O)C1C(=O)OC (stereo not drawn) |  |  | 0.0319 µM and 0.0122 µM and 0.0182 µM |  |  |  | 0.117 µM and 0.245 µM and 1.17 µM |  | 0.0576 µM and 0.15 µM |  | 0.00486 µM and 0.00785 µM and < 0.0121 µM |  | 0.00111 µM and 0.00788 µM |  |  |  |  | 0.0245 µM |  | 
16 | COc1cc(/C=C2/SC(c3ccccc3)N(c3ccc(NC(C)=O)cc3)C2=O)cc(OC)c1OC (stereo not drawn) | > 100 µM | > 100 µM | > 100 µM | > 100 | > 100 µM | > 100 µM | > 100 µM | > 100 µM |  |  |  |  |  |  |  |  |  |  |  | 
